Measured values: patent US9102698B2 (CAN-FITE BIOPHARMA LTD., priority 2007, dated 2015)

Experiments:
[1] = Solubility study on 3-iodobenzylamine hydrochloride in synthesis solvents; assay type: physicochemical
Description: 3-Iodobenzylamine hydrochloride recrystallized from protic solvents but was insoluble in aprotic organic solvents. No purity enhancement was observed during hot (reflux) slurries in aprotic organic solvents.

[2] = tested on: collagen and adjuvant induced arthritis (AIA); settings: experimental animal models; cited from earlier work
neutrophils = settings: oral, mice, cited from earlier work
TNF-α and MIP-1α = settings: in vitro; cited from earlier work
A3AR = settings: synovial and peripheral blood mononuclear cells of AIA rats, upon IB-MECA treatment; cited from earlier work
[3] = tested on: tumors (melanoma, colon carcinoma, prostate carcinoma); settings: orally administered; syngeneic (melanoma, colon carcinoma) and xenograft (colon and prostate carcinoma) mouse models; cited from earlier work
colon carcinoma = settings: oral, nude mice; cited from earlier work

Behavior at 21 C. ([1]; IPA, 10 solvent volumes)	Behavior at reflux ([1]; IPA, 10 solvent volumes)	Behavior at 21 C. ([1]; IPAc, 10 solvent volumes)	Behavior at reflux ([1]; IPAc, 10 solvent volumes)	Behavior at 21 C. ([1]; MeCN, 5 solvent volumes)	Behavior at reflux ([1]; MeCN, 5 solvent volumes)	Behavior at 21 C. ([1]; MeOH, 1 solvent volume)	Behavior at reflux ([1]; MeOH, 1 solvent volume)	Behavior at 21 C. ([1]; THF, 10 solvent volumes)	Behavior at reflux ([1]; THF, 10 solvent volumes)	SMILES	development of collagen and adjuvant induced arthritis [2]	cytotoxic-induced myelo-toxicity (neutrophils)	production of neutrophils (neutrophils; via an increase in G-CSF)	production of MIP-1α (TNF-α and MIP-1α)	production of TNF-α (TNF-α and MIP-1α)	A3AR level (A3AR)	development of tumors [3]	neutrophil recovery after cytotoxic drug therapy (colon carcinoma)	progression of colon carcinoma (colon carcinoma)
Insoluble	Soluble	Insoluble	Insoluble	Insoluble	Insoluble	Insoluble	Soluble	Insoluble	Insoluble	Cl.NCc1cccc(I)c1 [3-iodobeuzylamine hydrochloride, 3-iodobenzylamine hydrochloride]	–	–	–	–	–	–	–	–	–
–	–	–	–	–	–	–	–	–	–	CNC(=O)[C@H]1O[C@@H](n2cnc3c(NCc4cccc(I)c4)ncnc32)[C@H](O)[C@@H]1O [IB-MECA, 1-deoxy-1-(6-{[(3-iodophenyl)methyl]amino}9H-purine-9-yl)-N-methyl-β-d-ribofuranuronamide]	preventing the development	protects against cytotoxic-induced myelo-toxicity	stimulates the production of neutrophils	inhibited	inhibited	down regulates	inhibits the development of tumors	stimulates neutrophil recovery	inhibits progression of colon carcinoma
